The term EC50 denotes the concentration that produces a half-maximal response.

The results in this text go back to patent US10570179B2, “Substituted urea depsipeptide analogs as activators of the CLPP endopeptidase” (priority 2016, dated 2020).

In data set [1] the target is T1, S. aureus ClpP (Sa-ClpP) (Staphylococcus aureus, UniProt Q2G036).
T1 construct: made in house; host or cells: E. coli BL21 (DE3)
The experiment in a line: Casein-BODIPY digestion assay (ClpP activation). It is filed as biochemical.

Data set [2] concerns S. aureus ΔClpP. The data set is described as follows: Minimal inhibitory concentration, microbroth dilution. It is filed as cell-based, Staphylococcus aureus. Particulars: MIC; ClpP inactivated. The method, boiled down:
(§1)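 Compound was diluted twofold in the appropriate broth. Bacterial suspension (approx. 10^5 cfu/mL) was then added in equal volume, giving a maximum test concentration of 200 μM. After aerobic overnight incubation at 37 °C, wells were inspected visually for growth.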

The subject of data set [3] is MRSA NRS70. The description is as above. It is filed as cell-based. The note with it: Staphylococcus aureus; MIC; read-out: Minimal Inhibitory Concentrations (μM) MRSA NRS70. In a few lines:
as §1

The subject of data set [4] is S. aureus USA 300. Described as above. It is filed as cell-based. Particulars: Staphylococcus aureus, USA300; MIC; read-out: Minimal Inhibitory Concentrations (μM) S. aureus USA 300. In a few lines: as §1
Data set [5] is described as follows: Plasma protein binding, rapid equilibrium dialysis. In kind it is in vitro ADME, mouse. Particulars: mouse, 4 h, 10 μM, pH 7.4.

The structures appear in SMILES notation. ≈ marks a conversion by molar mass, not a printed value. Numbered stars: 1 amine (or outer) side, 2 acyl side, 3 side chain; on linkers, the order of the positions; unused ones are H or OH. Bridge positions count the residues as written; N and C are the ends. Square brackets hold non-standard residues; d marks the D form. Peptide text beside a SMILES is read from it. * marks the point of attachment. Piperazine(2S-CO,4-Me) = CN1CCN[C@H](C(=O)O)C1; Phe(3-Me) = Cc1cccc(C[C@H](N)C(=O)O)c1; NH(4-Cl-2-F-phenyl) = Fc1cc(Cl)ccc1N*; Pro(4R-Me) = C[C@H]1CN[C@H](C(=O)O)C1; Hyp = O=C(O)[C@@H]1C[C@@H](O)CN1; aThr = C[C@H](O)[C@H](N)C(=O)O; Pip = O=C(O)[C@@H]1CCCCN1; CO = O=C([*:1])[*:2]; X2 = Fc1cc(N*)ccc1Cl Where only a bound is given, the exact number is not on record here.

T1 sequence (Q2G036 whole entry): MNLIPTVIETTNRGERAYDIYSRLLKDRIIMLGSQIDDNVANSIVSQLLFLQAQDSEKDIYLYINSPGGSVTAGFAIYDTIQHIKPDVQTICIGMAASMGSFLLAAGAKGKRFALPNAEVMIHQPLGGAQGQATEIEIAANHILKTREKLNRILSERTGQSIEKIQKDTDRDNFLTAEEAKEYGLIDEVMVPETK

The compound `Cc1cccc(C[C@H](NC(=O)Nc2ccc3c(c2)OCCO3)C(=O)N[C@H]2COC(=O)[C@@H]3C[C@@H](C)CN3C(=O)[C@H](C)NC(=O)[C@@H]3CCCCN3C(=O)[C@@H]3CCCN3C2=O)c1` [Compound 22, (S)-2-(3-(2,3-DIHYDROBENZO[B][1,4]DIOXIN-6-YL)UREIDO)-N-((2R,6S,8AS,14AS,20S,23AS)-2,6-DIMETHYL-5,8,14,19,23-PENTAOXOOCTADECAHYDRO-1H,5H,14H,19H-PYRIDO[2,1-I]DIPYRROLO[2,1-C:2′,1′-L][1]OXA[4,7,10,13]TETRAAZACYCLOHEXADECIN-20-YL)-3-(M-TOLYL)PROPANAMIDE] had an EC50 in data set [1] of 0.65 ± 0.06 µM. The “Minimal Inhibitory Concentrations (μM) S. aureus ΔClpP” value in data set [2] was over 20 µM. The MIC in data set [3] turned out to be 1.25 µM (≈ 1.02 µg/mL); in data set [4], 5 µM (≈ 4.08 µg/mL). In data set [5], this compound gave a Mouse of 98.4 ± 0.1%.
`Cc1cccc(C[C@H](NC(=O)Nc2ccc(Cl)cc2F)C(=O)N[C@H]2COC(=O)[C@@H]3C[C@@H](C)CN3C(=O)[C@H](C)NC(=O)[C@@H]3CCCCN3C(=O)[C@@H]3C[C@@H](O)CN3C2=O)c1` [Compound 10] yielded an EC50 in data set [1] of 0.38 ± 0.03 µM. Further, the “Minimal Inhibitory Concentrations (μM) S. aureus ΔClpP” value in data set [2] is over 20 µM. Moreover, the MIC in data set [3] and in data set [4] was 0.313 µM (≈ 0.259 µg/mL) throughout. For the same compound, the Mouse in data set [5] worked out at 99.7 ± 0.0%.
Regarding `Cc1cccc(C[C@H](NC(=O)Nc2ccc(Cl)cc2F)C(=O)N[C@@H]2C(=O)N3C[C@H](O)C[C@H]3C(=O)N3CCCC[C@H]3C(=O)N[C@@H](C)C(=O)N3C[C@H](C)C[C@H]3C(=O)O[C@H]2C)c1` [Compound 6, (S)-2-(3-(4-CHLORO-2-FLUOROPHENYL)UREIDO)-N-((2R,6S,8AS,14AS,16R,20S,21S,23AS)-16-HYDROXY-2,6,21-TRIMETHYL-5,8,14,19,23-PENTAOXOOCTADECAHYDRO-1H,5H,14H,19H-PYRIDO[2,1-I]DIPYRROLO[2,1-C:2′,1′-L][1]OXA[4,7,10,13]TETRAAZACYCLOHEXADECIN-20-YL)-3-(M-TOLYL)PROPANAMIDE] ({NH(4-Cl-2-F-phenyl)-CO}-[Phe(3-Me)][aThr][Hyp][Pip]A[Pro(4R-Me)]; ester 2-C), in data set [1], a half-maximal effect (EC50) was put at 0.23 ± 0.02 µM. Moreover, in data set [2], the “Minimal Inhibitory Concentrations (μM) S. aureus ΔClpP” value is over 20 µM. For the same compound, the values for the MIC in data set [3] and in data set [4] were 0.078 µM (≈ 0.0655 µg/mL) and 0.156 µM (≈ 0.131 µg/mL), respectively. Further, in data set [5], the Mouse came to 99.5 ± 0.1%.
In the same order, the values of `Cc1cccc(C[C@H](NC(=O)Nc2ccc(Cl)cc2F)C(=O)N[C@@H]2C(=O)N3CCC[C@H]3C(=O)N3CCCC[C@H]3C(=O)N[C@@H](C)C(=O)N3C[C@H](C)C[C@H]3C(=O)O[C@H]2C)c1` [Compound 3, (S)-2-(3-(4-CHLORO-2-FLUOROPHENYL)UREIDO)-3-(M-TOLYL)-N-((2R,6S,8AS,14AS,20S,21S,23AS)-2,6,21-TRIMETHYL-5,8,14,19,23-PENTAOXOOCTADECAHYDRO-1H,5H,14H,19H-PYRIDO[2,1-I]DIPYRROLO[2,1-C:2′,1′-L][1]OXA[4,7,10,13]TETRAAZACYCLOHEXADECIN-20-YL)PROPANAMIDE] ({NH(4-Cl-2-F-phenyl)-CO}-[Phe(3-Me)][aThr]P[Pip]A[Pro(4R-Me)]; ester 2-C) are 0.39 ± 0.02 µM, 50 µM, 0.078 µM (≈ 0.0643 µg/mL), 0.156 µM (≈ 0.129 µg/mL) and 99.3 ± 0.1%.
Compound `Cc1cccc(C[C@H](NC(=O)Nc2ccc(Cl)c(F)c2)C(=O)N[C@H]2COC(=O)[C@@H]3C[C@@H](C)CN3C(=O)[C@H](C)NC(=O)[C@@H]3CN(C)CCN3C(=O)[C@@H]3CCCN3C2=O)c1` [Compound 14, (S)-2-(3-(4-CHLORO-3-FLUOROPHENYL)UREIDO)-3-(M-TOLYL)-N-((6AS,12S,15AS,17R,21S,23AS)-2,17,21-TRIMETHYL-6,11,15,20,23-PENTAOXOOCTADECAHYDRO-2H,6H,11H,15H-PYRAZINO[2,1-I]DIPYRROLO[2,1-C:2′,1′-L][1]OXA[4,7,10,13]TETRAAZACYCLOHEXADECIN-12-YL)PROPANAMIDE] ({X2-CO}-[Phe(3-Me)]SP[Piperazine(2S-CO,4-Me)]A[Pro(4R-Me)]; ester 2-C) returned an EC50 in data set [1] of 1.41 ± 0.2 µM. Also, the “Minimal Inhibitory Concentrations (μM) S. aureus ΔClpP” value in data set [2] is over 20 µM. The MIC in data set [3] stood at 2.5 µM (≈ 2.06 µg/mL); in data set [4] it was 5 µM (≈ 4.13 µg/mL). In addition, the Mouse in data set [5] is 98.9 ± 0.1%.
For `Cc1cccc(C[C@H](NC(=O)Nc2ccc(Cl)cc2F)C(=O)N[C@@H]2C(=O)N3CCC[C@H]3C(=O)N3CCN(C)C[C@H]3C(=O)N[C@@H](C)C(=O)N3C[C@H](C)C[C@H]3C(=O)O[C@H]2C)c1` [Compound 11, (S)-2-(3-(4-CHLORO-2-FLUOROPHENYL)UREIDO)-N-((6AS,12S,13S,15AS,17R,21S,23AS)-2,13,17,21-TETRAMETHYL-6,11,15,20,23-PENTAOXOOCTADECAHYDRO-2H,6H,11H,15H-PYRAZINO[2,1-I]DIPYRROLO[2,1-C:2′,1′-L][1]OXA[4,7,10,13]TETRAAZACYCLOHEXADECIN-12-YL)-3-(M-TOLYL)PROPANAMIDE] ({NH(4-Cl-2-F-phenyl)-CO}-[Phe(3-Me)][aThr]P[Piperazine(2S-CO,4-Me)]A[Pro(4R-Me)]; ester 2-C) the same measures were 0.29 ± 0.01 µM, over 20 µM, 0.078 µM (≈ 0.0655 µg/mL), 0.078 µM (≈ 0.0655 µg/mL) and 98.8 ± 0.4%.
